From patent US11396517B1, “Exo-aza spiro inhibitors of menin-MLL interaction” (Janssen Pharmaceutica NV, priority 2017, dated 2022)
Like-named read-outs stand apart in the source and are kept apart here.

Legend:
MOLM14 [1] = assay: Proliferation assay A (spheroid assay) MOLM14; type: cell-based, human; conditions: MOLM14 cells, 8 d, AUC of confluence against time, absolute IC50, read-out: (3a) Spheroid assay MOLM14 (IC50(μM)) Assay A
Experimental: 3a) Proliferation Assay A
The anti-proliferative effect of menin/MLL protein/protein interaction inhibitor test compounds was assessed in human leukemia cell lines. The cell lines MV-4-11 and MOLM14 harbor MILL translocations and express the MILL fusion proteins MLL-AF4 and MLL-AF9, respectively, as well as the wildtype protein from the second allele. […] K562 was used as a control cell line containing two MLL wildtype alleles in order to exclude compounds that display general cytotoxic effects.
MV-4-11 and MOLM14 were cultured in RPMI-1640 (Sigma Aldrich) supplemented with 10% fetal bovine serum (HyClone), 2 mM L-glutamine (Sigma Aldrich) and 50 μg/ml gentamycin (Gibco). K562 were propagated in RPMI-1640 (Sigma Aldrich) supplemented with 20% fetal bovine serum (HyClone), 2 mM L-glutamine (Sigma Aldrich) and 50 μg/ml gentamycin (Gibco).
In order to assess the anti-proliferative effects, 1,500 MV-4-11, 300 MOLM14 or 750 K562 cells were seeded in 200 μl media per well in 96-well round bottom, ultra-low attachment plates (Costar, catalogue number 7007). Cell seeding numbers were chosen based on growth curves to ensure linear growth throughout the experiment. Test compounds were added at different concentrations and the DMSO content was normalized to 0.3%. Cells were incubated for 8 d at 37° C. and 5% CO2. Spheroid like growth was monitored in real-time by live-cell imaging (IncuCyteZOOM, Essenbio, 4× objective) acquiring one image every four hours for 8 d. Confluence (%) as a measure of spheroid size was determined using an integrated analysis tool.
In order to determine the cumulative effect of the test compounds over time, the area under the curve (AUC) in a plot of confluence against time was calculated. Confluence at the beginning of the experiment (t=0) was used as baseline for the AUC calculation.
Absolute IC50 values were calculated according to the following procedure: % Control=(AUC sample/AUC control)*100
AUC control mean AUC of control values (cells without compound/DMSO as vehicle control)
A non-linear curve fit was applied using the least squares (ordinary) fit method to the plot of % control versus compound concentration. Based on this, the absolute IC50 value (half maximal inhibitory concentration of the test compound causing an anti-proliferative effect of 50% relative to the vehicle control) was calculated.

MOLM14 [2] = assay: Proliferation assay B (spheroid assay) MOLM14; type: cell-based, human; conditions: Homo sapiens, MOLM-14, 192 h, MOLM14 cells, confluence at day 8, absolute IC50; read-out: (3b) Spheroid assay MOLM14 (IC50(μM)) Assay B
Method in brief: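 Leukemia cells grown as spheroids in ultra-low-attachment round-bottom wells with compound at 0.3% DMSO for 8 d at 37 °C. Confluence imaged at day 8 as spheroid size, normalized between DMSO and 1 μM staurosporine controls; absolute IC50 from sigmoidal fit with bounds fixed at 0 and 100%.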

MV-4-11 = assay: Proliferation assay A (spheroid assay) MV-4-11; type: cell-based, human; conditions: MV-4-11 cells, 8 d, AUC of confluence against time, absolute IC50, read-out: (3a) Spheroid assay MV-4-11 (IC50(μM)) Assay A
Method in brief: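 Spheroid growth in ultra-low-attachment round-bottom wells (1,500 MV-4-11, 300 MOLM14 or 750 K562 cells), compound titration at 0.3% DMSO, 8 d at 37° C. Confluence imaged every 4 h; AUC from t=0 baseline expressed as % of DMSO control and fitted for absolute IC50.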

menin = target: T1, menin (Homo sapiens, UniProt O00255, T541A); assay: Menin/MLL homogenous time-resolved fluorescence (HTRF) assay; type: binding
T1 construct: Menin (a.a. 1-610-6×his tag)
T1 sequence (O00255 with tags, fused parts or gaps T541A): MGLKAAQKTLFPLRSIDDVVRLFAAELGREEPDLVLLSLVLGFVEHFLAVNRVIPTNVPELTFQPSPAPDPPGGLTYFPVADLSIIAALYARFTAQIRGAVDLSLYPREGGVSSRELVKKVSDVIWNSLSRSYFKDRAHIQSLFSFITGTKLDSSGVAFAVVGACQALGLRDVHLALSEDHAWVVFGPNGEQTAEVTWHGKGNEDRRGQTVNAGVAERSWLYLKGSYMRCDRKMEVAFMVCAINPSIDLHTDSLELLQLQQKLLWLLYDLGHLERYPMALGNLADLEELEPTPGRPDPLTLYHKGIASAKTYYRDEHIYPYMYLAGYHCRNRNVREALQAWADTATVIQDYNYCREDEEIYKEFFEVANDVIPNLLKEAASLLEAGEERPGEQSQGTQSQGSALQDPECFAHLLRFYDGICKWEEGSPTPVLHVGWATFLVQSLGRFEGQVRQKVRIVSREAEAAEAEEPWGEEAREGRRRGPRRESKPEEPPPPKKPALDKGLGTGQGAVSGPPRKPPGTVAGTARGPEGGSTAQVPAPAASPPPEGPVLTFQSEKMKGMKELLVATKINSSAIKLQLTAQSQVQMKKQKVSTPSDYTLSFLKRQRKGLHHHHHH
Method in brief: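 Terbium-labeled menin (aa 1-610, His-tagged; […]) preincubated 5 min with compound, then 75 nM FITC-MBM1 peptide for 15 min, ambient, Tris pH 7.5, 0.5% DMSO. HTRF 520/490 ratio; 11-point 3-fold titration; IC50 from % inhibition fit.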

[3] = location 2, read-out: (2) location 2 Menin HTRF assay (IC50 (nM))
[4] = location 1, read-out: (2) location 1 Menin HTRF assay (IC50 (nM))

Compound	IC50 (MOLM14 [1]; Homo sapiens, MOLM-14, 192 h) [µM]	IC50 (MOLM14 [2]) [µM]	IC50 (MV-4-11; Homo sapiens, MV4-11, 192 h) [µM]	IC50 (menin; [3]) [nM]	IC50 (MOLM14 [1]) [µM]	IC50 (MV-4-11) [µM]	IC50 (menin; [4]) [nM]
CNC(=O)c1ccc(NC2CCC3(C2)CN(c2ncnc4sc(CC(F)(F)F)cc24)C3)cc1 (single isomer, unassigned) [Compound 98]	1.3	1.36	0.25	2.6	–	–	–
O=c1[nH]c2ccc(CNC3CCC4(C3)CN(c3ncnc5sc(CC(F)(F)F)cc35)C4)cc2[nH]1 (single isomer, unassigned) [Compound 109]	–	2.26	–	1.6	3.24	0.24	–
CC(C)(N[C@H]1CCC2(C1)CN(c1ncnc3sc(CC(F)(F)F)cc13)C2)c1ccccc1 (single isomer, unassigned) [Compound 281]	1.78	–	1.11	62.7	–	–	–
N#CCc1ccc(NC2CC3(CCN(c4ncnc5sc(CC(F)(F)F)cc45)C3)C2)cc1 (single isomer, unassigned) [Compound 306]	3.82	–	–	78.2	–	2.25	–
N#CCc1ccc(NC2CC3(CCN(c4ncnc5sc(CC(F)(F)F)cc45)C3)C2)cc1 (single isomer, unassigned) [Compound 307]	–	2.44	–	3.1	3.38	1.05	–
Nc1nc(N2CCC3(CC(Nc4ccc5[nH]c(=O)oc5c4)C3)C2)c2cc(CC(F)(F)F)sc2n1 (single isomer, unassigned) [Compound 386]	1.99	–	> 3.75	86.8	–	–	–
FC(F)(F)Cc1cc2c(N3CCC4(CCC(NCc5ccccc5)CC4)C3)ncnc2s1 (centres unmarked) [Compound 1]	0.79	–	0.17	5	–	–	3.7
O=c1[nH]c2ccc(CNC3CCC4(C3)CN(c3ncnc5sc(CC(F)(F)F)cc35)C4)cc2[nH]1 (centres unmarked) [Compound 14]	2.3	–	0.39	0.8	–	–	5.9
O=c1[nH]c2ccc(CNC3CCC4(C3)CN(c3ncnc5sc(CC(F)(F)F)cc35)C4)cc2o1 (centres unmarked) [Compound 15]	1.29	–	0.25	2.2	–	–	–
O=c1[nH]c2cc(CNC3CCC4(C3)CN(c3ncnc5sc(CC(F)(F)F)cc35)C4)ccc2o1 (centres unmarked) [Compound 16]	0.19	–	0.03	2	–	–	–
FC(F)(F)Cc1cc2c(N3CC4(CCC(NCc5cccc(-c6cc[nH]n6)c5)C4)C3)ncnc2s1 (centres unmarked) [Compound 17]	3.51	–	1.36	7.2	–	–	–
CC(C)N(C)CC1CC2(CCN(c3ncnc4sc(CC(F)(F)F)cc34)C2)C1 (centres unmarked) [Compound 40]	2.64	–	3.13	90.9	–	–	–
CC(NC1CCC2(C1)CN(c1ncnc3sc(CC(F)(F)F)cc13)C2)c1ccccc1 (centres unmarked) [Compound 42]	0.69	–	1.24	43.8	–	–	–
N#CCc1ccc(NC2CC3(CCN(c4ncnc5sc(CC(F)(F)F)cc45)C3)C2)cc1 (centres unmarked) [Compound 44]	2.61	–	2.08	11.3	–	–	–
CC(C)NC1CC2(CCN(c3ncnc4sc(CC(F)(F)F)cc34)C2)C1 (centres unmarked) [Compound 51]	2.46	–	0.81	–	–	–	61.3
COc1nc(N2CCC3(CC(NCc4ccccc4)C3)C2)c2cc(CC(F)(F)F)sc2n1 (centres unmarked) [Compound 59]	0.85	–	0.28	4.5	–	–	–
CNc1nc(N2CCC3(CC(NCc4ccccc4)C3)C2)c2cc(CC(F)(F)F)sc2n1 (centres unmarked) [Compound 61]	0.29	–	0.1	2.4	–	–	–
N#CCc1ccc(NC2CC3(CCN(c4ncnc5sc(CC(F)(F)F)cc45)C3)C2)c(F)c1 (centres unmarked) [Compound 63]	1.13	–	1.01	44.3	–	–	–
Cc1nc(N2CC3(CCC(NCc4ccc5[nH]c(=O)[nH]c5c4)C3)C2)c2cc(CC(F)(F)F)sc2n1 (centres unmarked) [Compound 119]	2.28	–	2.15	47.9	–	–	–
CNc1nc(N2CC3(CCC(NCc4ccc5[nH]c(=O)[nH]c5c4)C3)C2)c2cc(CC(F)(F)F)sc2n1 (centres unmarked) [Compound 120]	2.9	–	2.13	52.4	–	–	–
N#CCc1ccc(NC2CCC3(CCN(c4ncnc5sc(CC(F)(F)F)cc45)C3)C2)cc1 (centres unmarked) [Compound 143]	1.68	–	1.94	32.2	–	–	–
O=c1[nH]c2cc(NC3CCC4(C3)CN(c3ncnc5sc(CC(F)(F)F)cc35)C4)ccc2o1 (centres unmarked) [Compound 285]	> 3.75	–	2.65	16.2	–	–	–
FC(F)(F)Cc1cc2c(N3CC4(CCC(Nc5ccc6cc(C(F)(F)F)[nH]c6c5)C4)C3)ncnc2s1 (centres unmarked) [Compound 288]	> 3.75	–	> 3.75	135	–	–	–
FC(F)(F)Cc1cc2c(N3CC4(CC(NCc5ccccc5)C4)C3)ncnc2s1 [Compound 428]	1.84	–	0.55	–	–	–	23.8
